Several values for one entry are separate records, joined by “and”; a condition that tells them apart may be missing. Identical values can stand only once.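 Cells were grown in 96-well plates and exposed to each compound for 48 hours at five concentrations; endpoints were interpolated linearly between bracketing concentrations, or set to the highest concentration if not reached. GI50 = concentration required for 50% inhibition of growth. TGI marks complete inhibition of growth.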
What was measured:
Assay in all cases: DTP human tumour cell line panel, 48 h
U251 CNS = test system: U251 CNS
HL-60(TB) leukemia = test system: HL-60(TB) leukemia
HCC-2998 colon = test system: HCC-2998 colon
SNB-19 CNS = test system: SNB-19 CNS
UACC-257 melanoma = test system: UACC-257 melanoma
786-0 renal = test system: 786-0 renal
EKVX NSCLC = test system: EKVX NSCLC
NCI-H226 lung = test system: NCI-H226 lung
TK-10 renal = test system: TK-10 renal
SK-MEL-28 melanoma = test system: SK-MEL-28 melanoma

SMILES	TGI (U251 CNS)	TGI (HL-60(TB) leukemia)	TGI (HCC-2998 colon)	TGI (SNB-19 CNS)	TGI (UACC-257 melanoma)	TGI (786-0 renal)	TGI (EKVX NSCLC)	TGI (NCI-H226 lung)	TGI (TK-10 renal)	TGI (SK-MEL-28 melanoma)	GI50 (U251 CNS)	GI50 (HL-60(TB) leukemia)	GI50 (HCC-2998 colon)	GI50 (SNB-19 CNS)	GI50 (UACC-257 melanoma)	GI50 (SK-MEL-28 melanoma)	GI50 (786-0 renal)	GI50 (EKVX NSCLC)	GI50 (NCI-H226 lung)	GI50 (TK-10 renal)
C/C(=N/NC(N)=S)C(CN1CCOCC1)C(C1=C(O)c2ccccc2OC1)c1ccccc1 (configuration not stated)	> 100 µM	50 µM	> 100 µM	> 100 µM	> 100 µM	> 100 µM	> 100 µM	> 100 µM	> 100 µM											
CC(NC1CCCC[C@@H]1O)c1ccccc1 (some centres not stated)	> 100 µM	> 100 µM	> 100 µM	> 100 µM	> 100 µM	> 100 µM	> 100 µM	> 100 µM	> 100 µM	> 100 µM										
CCOC(=O)NN1C(=O)C(=P(c2ccccc2)(c2ccccc2)c2ccccc2)C(C(=O)OC)=C1C	> 100 µM	> 100 µM	> 100 µM	> 100 µM	> 100 µM	> 100 µM	> 100 µM	> 100 µM	> 100 µM											
Cn1cc(-c2csc(-c3ccc(Cl)cc3)n2)c2cccnc21	29.4 µM	47.5 µM	28.8 µM	30.2 µM	43.5 µM	32.4 µM	26.1 µM	43.6 µM	31.1 µM	29.4 µM	14600 nM	10400 nM	14600 nM	13800 nM	19.9 µM	15.2 µM	16.3 µM	2850 nM	14.8 µM	12.4 µM
CCS(=O)(=O)c1cccc(-c2cc(C(=O)NC3CCN(C)CC3)c(C)c3[nH]c4ncc(C)cc4c23)c1	5.16 µM and 2.35 µM	4.22 µM and 3.97 µM	2.14 µM and 4.18 µM	> 10 µM and 6.67 µM	6.79 µM and 4.67 µM	> 8.05 µM and 4.7 µM	> 10 µM and 11 µM	3.83 µM and 5.2 µM	> 8.01 µM and 6.7 µM	6.53 µM and 5.09 µM	537 nM and 316 nM	179 nM and 442 nM	177 nM and 703 nM	302 nM and 250 nM	1.26 µM and 0.562 µM	0.834 µM and 0.566 µM	1.68 µM and 1.32 µM	1330 nM and 898 nM	0.372 µM and 0.714 µM	1.71 µM and 1.44 µM
O=S1(=O)CCC2=CC(C(F)(F)F)=CC(C(F)(F)F)=CN21	3.43 µM	3.9 µM	3.68 µM	6.08 µM	5.76 µM	1.09 µM	9.38 µM	5.58 µM	2.13 µM	4.54 µM										
O=C1N=C2N=C(c3ccc(Cl)cc3)N(c3ccc(Cl)cc3)N2Sc2ccccc21	87.2 µM	> 100 µM	> 100 µM	> 100 µM	> 100 µM	> 100 µM	> 100 µM	> 100 µM	> 100 µM	> 100 µM										
Cc1nc(C(=O)OCc2ccccc2)cc(OCc2ccccc2)c1C	48.2 µM	25 µM	54.1 µM	> 82.8 µM	38.3 µM	50.9 µM	52.7 µM	46.9 µM	> 100 µM	29.8 µM	17600 nM	1530 nM	20500 nM	27800 nM	18.8 µM	15.5 µM	21.2 µM	19300 nM	19.1 µM	50.4 µM
c1ccc(C2N=C(c3ccccn3)C(c3ccccn3)=NC2c2ccccc2)cc1 (configuration not stated)	> 100 µM	> 100 µM	> 100 µM	> 100 µM	> 100 µM	> 100 µM	> 100 µM	> 100 µM	> 100 µM	> 100 µM										
CC(=O)c1nc(-c2ccc(C[C@@H](CNC(=O)CN(C)C)NC(=O)c3ccc(OC(C)C)c(Cl)c3)cc2)cn1C	16.7 µM	0.0719 µM	21.8 µM	17.7 µM	24.3 µM	17.1 µM	17.8 µM	33.9 µM	25 µM	22.6 µM	21.5 nM	22.3 nM	134 nM	43.9 nM	9.58 µM	8.01 µM	0.0851 µM	45.5 nM	12.6 µM	12.1 µM
COC(=O)C1=C(O)c2cc(OC)c(OC)c(OC)c2C(c2ccc3c(c2)OCO3)[C@@H]1C(=O)OC (some centres not stated)	> 100 µM	5.49 µM	31.7 µM		> 100 µM	> 100 µM	> 100 µM	> 100 µM	> 100 µM	> 100 µM										
O=C(OCC1=CC(=O)c2ccccc2C1=O)c1ccccc1	28.5 µM	14.1 µM	18.8 µM	22.4 µM	9.47 µM	33.8 µM	27.5 µM	31.5 µM	29.6 µM	28 µM	14600 nM	3720 nM	6140 nM	10300 nM	3.13 µM	13 µM	18.9 µM	12900 nM	14.1 µM	15.9 µM
O=C(NC1=C(Cl)C(=O)c2ccccc2C1=O)C(=O)c1c(O)c2ccccc2oc1=O	20.9 µM	29.1 µM	20.4 µM	16 µM	3.17 µM	19 µM	22.4 µM	28.9 µM	37.7 µM	6.2 µM										
BrCc1ccc2ccc3ccc(CBr)nc3c2n1	19 µM	5.28 µM	8.73 µM	19.5 µM	14.1 µM	7.58 µM	22.6 µM	15 µM	5.72 µM	6.02 µM										
COc1ccc(/C=C(\C#N)c2cc(OC)c(OC)c(OC)c2)cc1	> 100 µM	0.0661 µM	1.25 µM	> 100 µM	> 100 µM	34.6 µM	> 100 µM	0.0706 µM	> 100 µM	> 100 µM	35.9 nM	24.4 nM	28.3 nM	55.8 nM	0.012 µM	0.0634 µM	0.0309 µM	65.6 nM	0.0252 µM	
COc1ccc(C(=O)Cn2c(C(=O)c3ccc(Cl)cc3)nc(-c3ccccc3)c2-c2ccccc2)cc1	> 100 µM	> 100 µM	> 100 µM	> 100 µM	> 100 µM	> 100 µM	> 100 µM	> 100 µM	> 100 µM	> 100 µM	73000 nM	> 100000 nM	> 100000 nM	78300 nM	> 100 µM	> 100 µM	79.6 µM	> 100000 nM	> 100 µM	46.5 µM
CN(Cc1cnc2nc(N)nc(N)c2n1)c1c(Cl)cc(C(=O)NC(CCC(=O)O)C(=O)O)cc1Cl (configuration not stated)	> 100 µM	> 100 µM	> 100 µM	> 100 µM	> 100 µM	> 100 µM	> 100 µM	> 100 µM	> 100 µM	> 100 µM	42.3 nM	< 10 nM	< 14.8 nM	39.5 nM		0.313 µM	< 0.01 µM		0.0745 µM	1.88 µM
Nc1ccccc1SC(/C=C/NNC1=NC(c2ccccc2)C(c2ccccc2)=NN1)c1ccccc1 (configuration not stated)	28.9 µM	13.1 µM	30.5 µM	43.8 µM	28.1 µM	25 µM	29 µM	30.4 µM	33.3 µM	27 µM										
O=C(Nc1ccccc1)N1C(c2ccccc2)=N[C@@H](c2ccccc2)[C@@H]1c1ccccc1		46.5 µM	35.2 µM	97.9 µM	35.3 µM	34.7 µM	> 100 µM	46.4 µM	76.1 µM	30.6 µM										
COc1ccc(CN2c3ccccc3Sc3ccccc32)cc1O	14.5 µM	0.661 µM	10.7 µM	26.9 µM		21.5 µM	15.9 µM	35 µM	20.5 µM	32.2 µM	427 nM	257 nM	422 nM	771 nM		14.4 µM	0.838 µM	378 nM	12.2 µM	2.52 µM
CN(C)C(=S)/N=c1\ssc(=Nc2ccccc2)n1-c1ccccc1	70.7 µM	> 100 µM	68.9 µM		> 100 µM	37.1 µM	94.4 µM	26.7 µM	64.4 µM	> 100 µM										
Cc1cc(C)c(-c2c(O)c(Br)c(-c3c(C)cc(C)c(Br)c3C)c(O)c2Br)c(C)c1Br	8.54 µM	9.67 µM	7.31 µM		12.2 µM	14.3 µM	8.86 µM	9.52 µM	13.4 µM	12.8 µM	2280 nM	1680 nM	2670 nM		2.52 µM	2.66 µM	3.74 µM	1620 nM	2.54 µM	3.37 µM
COc1c2c(c(O)c3c4c(c(C)cc13)C1OC3(C(OC)OC5CC(C)(O)C(OC6CC(C)(O)C(O)C(C)O6)C(C)O5)OC1C(OC)(O4)C31CO1)C(=O)C(O)CC2OC1CC(C)(O)C(OC(C)=O)C(C)O1 (configuration not stated)	< 0.0108 µM	< 0.01 µM	< 0.01 µM	0.739 µM	< 0.01 µM	< 0.0115 µM	0.0336 µM	< 0.01 µM	18.6 µM											
CN1C2C=CC(=O)C1C(C#N)C2 (configuration not stated)	> 100 µM	43.7 µM and > 100 µM	> 100 µM	> 100 µM		35.5 µM and > 100 µM	49.6 µM and > 100 µM	> 100 µM	> 100 µM	> 100 µM	23600 nM		32400 nM and 74900 nM			30 µM and > 100 µM	16.3 µM and 51.7 µM	20600 nM and 44200 nM	97.7 µM	
